Laboratory results published in PubChem BioAssay (NCI).
“And” between values parts separate entries of the source, which are not always exact repeats. Equal entries are not always repeated.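 Five compound concentrations were applied to cells in 96-well plates for 48 hours; endpoints were derived by simple linear interpolation of the resulting dose-response curve. GI50 marks 50% less growth. TGI marks complete inhibition of growth.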

Assays:
Assay in all cases: NCI tumour cell line growth inhibition, 48 h
786-0 renal = tested on: 786-0 renal
A498 renal = tested on: A498 renal
A549 NSCLC = tested on: A549 NSCLC
ACHN renal = tested on: ACHN renal
CAKI-1 renal = tested on: CAKI-1 renal
CCRF-CEM leukemia = tested on: CCRF-CEM leukemia
COLO 205 colon = tested on: COLO 205 colon
DLD-1 colon = tested on: DLD-1 colon
DMS 114 small cell lung = tested on: DMS 114 small cell lung
DMS 273 small cell lung = tested on: DMS 273 small cell lung
EKVX NSCLC = tested on: EKVX NSCLC
HCC-2998 colon = tested on: HCC-2998 colon
HCT-116 colon = tested on: HCT-116 colon
HCT-15 colon = tested on: HCT-15 colon
HL-60(TB) leukemia = tested on: HL-60(TB) leukemia
HOP-62 NSCLC = tested on: HOP-62 NSCLC
HOP-92 NSCLC = tested on: HOP-92 NSCLC
HT29 colon = tested on: HT29 colon
IGROV1 ovarian = tested on: IGROV1 ovarian
K-562 leukemia = tested on: K-562 leukemia
KM12 colon = tested on: KM12 colon
KM20L2 colon = tested on: KM20L2 colon
LOX IMVI melanoma = tested on: LOX IMVI melanoma
LXFL 529 NSCLC = tested on: LXFL 529 NSCLC
M14 melanoma = tested on: M14 melanoma
M19-MEL melanoma = tested on: M19-MEL melanoma
MALME-3M melanoma = tested on: MALME-3M melanoma
MCF7 breast = tested on: MCF7 breast
MOLT-4 leukemia = tested on: MOLT-4 leukemia
NCI-H226 lung = tested on: NCI-H226 lung
NCI-H23 lung = tested on: NCI-H23 lung
NCI-H460 lung = tested on: NCI-H460 lung
NCI-H522 lung = tested on: NCI-H522 lung
NCI/ADR-RES ovarian = tested on: NCI/ADR-RES ovarian
OVCAR-3 ovarian = tested on: OVCAR-3 ovarian
OVCAR-4 ovarian = tested on: OVCAR-4 ovarian
OVCAR-5 ovarian = tested on: OVCAR-5 ovarian
OVCAR-8 ovarian = tested on: OVCAR-8 ovarian
P388 leukemia = tested on: P388 leukemia
P388/ADR leukemia = tested on: P388/ADR leukemia
RPMI-8226 leukemia = tested on: RPMI-8226 leukemia
RXF 393 renal = tested on: RXF 393 renal
RXF-631 renal = tested on: RXF-631 renal
SF-268 CNS = tested on: SF-268 CNS
SF-295 CNS = tested on: SF-295 CNS
SF-539 CNS = tested on: SF-539 CNS
SK-MEL-2 melanoma = tested on: SK-MEL-2 melanoma
SK-MEL-28 melanoma = tested on: SK-MEL-28 melanoma
SK-MEL-5 melanoma = tested on: SK-MEL-5 melanoma
SK-OV-3 ovarian = tested on: SK-OV-3 ovarian
SN12C renal = tested on: SN12C renal
SN12K1 renal = tested on: SN12K1 renal
SNB-19 CNS = tested on: SNB-19 CNS
SNB-75 CNS = tested on: SNB-75 CNS
SNB-78 CNS = tested on: SNB-78 CNS
SW-620 colon = tested on: SW-620 colon
TK-10 renal = tested on: TK-10 renal
U251 CNS = tested on: U251 CNS
UACC-257 melanoma = tested on: UACC-257 melanoma
UACC-62 melanoma = tested on: UACC-62 melanoma
UO-31 renal = tested on: UO-31 renal
XF 498 CNS = tested on: XF 498 CNS

## N#C/C(=C\c1ccc(O)cc1)C(N)=O
786-0 renal
  TGI: > 100 µM
A498 renal
  TGI: > 100 µM
A549 NSCLC
  TGI: > 100 µM
ACHN renal
  TGI: > 100 µM
CAKI-1 renal
  TGI: > 100 µM
CCRF-CEM leukemia
  TGI: > 100 µM
COLO 205 colon
  TGI: > 100 µM
DLD-1 colon
  TGI: > 100 µM
DMS 114 small cell lung
  TGI: > 100 µM
DMS 273 small cell lung
  TGI: > 100 µM
EKVX NSCLC
  TGI: 97.8 µM and > 100 µM
HCC-2998 colon
  TGI: > 100 µM
HCT-116 colon
  TGI: > 100 µM
HCT-15 colon
  TGI: > 100 µM
HL-60(TB) leukemia
  TGI: > 100 µM
HOP-62 NSCLC
  TGI: > 100 µM
HOP-92 NSCLC
  TGI: > 100 µM
HT29 colon
  TGI: > 100 µM
IGROV1 ovarian
  TGI: > 100 µM
K-562 leukemia
  TGI: > 100 µM
KM12 colon
  TGI: > 100 µM
KM20L2 colon
  TGI: > 100 µM
LOX IMVI melanoma
  TGI: > 100 µM
LXFL 529 NSCLC
  TGI: > 100 µM
M14 melanoma
  TGI: > 100 µM
M19-MEL melanoma
  TGI: > 100 µM
MALME-3M melanoma
  TGI: > 100 µM
MCF7 breast
  TGI: > 100 µM
MOLT-4 leukemia
  TGI: > 100 µM
NCI-H226 lung
  TGI: > 100 µM
NCI-H23 lung
  TGI: > 100 µM
NCI-H460 lung
  TGI: > 100 µM
NCI-H522 lung
  GI50: 97.5 µM and 44 µM
  TGI: > 100 µM
NCI/ADR-RES ovarian
  TGI: > 100 µM
OVCAR-3 ovarian
  TGI: > 100 µM
OVCAR-4 ovarian
  TGI: > 100 µM
OVCAR-5 ovarian
  TGI: > 100 µM
OVCAR-8 ovarian
  TGI: > 100 µM
P388 leukemia
  TGI: > 100 µM
P388/ADR leukemia
  TGI: > 100 µM
RPMI-8226 leukemia
  TGI: > 100 µM
RXF 393 renal
  TGI: > 100 µM
RXF-631 renal
  TGI: > 100 µM
SF-268 CNS
  TGI: > 100 µM
SF-295 CNS
  TGI: > 100 µM
SF-539 CNS
  TGI: > 100 µM
SK-MEL-2 melanoma
  TGI: > 100 µM
SK-MEL-28 melanoma
  TGI: > 100 µM
SK-MEL-5 melanoma
  TGI: > 100 µM
SK-OV-3 ovarian
  TGI: > 100 µM
SN12C renal
  TGI: > 100 µM
SN12K1 renal
  TGI: > 100 µM
SNB-19 CNS
  TGI: > 100 µM
SNB-75 CNS
  GI50: > 49.9 µM and 12.7 µM
  TGI: > 94.3 µM and 54.7 µM
SNB-78 CNS
  TGI: > 100 µM
SW-620 colon
  TGI: > 100 µM
TK-10 renal
  TGI: > 100 µM
U251 CNS
  TGI: > 100 µM
UACC-257 melanoma
  TGI: > 100 µM
UACC-62 melanoma
  TGI: > 100 µM
UO-31 renal
  TGI: > 100 µM
XF 498 CNS
  TGI: > 100 µM
